This note sets out measurements from ChEMBL document CHEMBL3244218, “beta-Adrenergic blocking agents with acute antihypertensive activity” (1979).

Experiment [1] deals with Canis familiaris. In words: Peripheral vasodilating activity in mongrel dog assessed as increase in iliac blood flow at 1600 ug, ia in presence of isoproterenol and 2000 ug/kg timolol. In kind it is functional, Canis lupus familiaris, Artery.
Experiment [2] concerns Canis familiaris. In words: In-vivo beta-adrenergic blocking activity in iv dosed mongrel dog assessed as blockade of isoproterenol-induced hypotension by measuring mean arterial pressure. Format: functional. The note with it: Canis lupus familiaris, Artery.
For experiment [3], the system named is Canis familiaris. In words: In-vivo beta-adrenergic blocking activity in iv dosed mongrel dog assessed as blockade of isoproterenol-induced tachycardia by measuring heart rate. The note with it: Canis lupus familiaris. Format: functional.
The test system of experiment [4] is Rattus norvegicus. In words: Antihypertensive activity in spontaneously hypertensive rat assessed as maximum fall in mean arterial pressure at 5 mg/kg, po. In kind it is functional, Artery.
In experiment [5] the test system is Rattus norvegicus. In words: Antihypertensive activity in spontaneously hypertensive rat assessed as maximum fall in mean arterial pressure at 20 mg/kg, po. Format: functional, Artery.
Experiment [6] is filed under the species Canis familiaris. The experiment in a line: Peripheral vasodilating activity in mongrel dog assessed as increase in iliac blood flow at 1600 ug, ia. In kind it is functional, Canis lupus familiaris, Artery.
The test system of experiment [7] is Canis familiaris. The experiment in a line: In-vivo beta-adrenergic blocking activity in iv dosed mongrel dog assessed as blockade of isoproterenol-induced bronchodilation by measuring pulmonary pressure. As to conditions: Canis lupus familiaris. In kind it is functional.
In experiment [8] the test system is Rattus norvegicus. The experiment in a line: Antihypertensive activity in spontaneously hypertensive rat assessed as maximum fall in mean arterial pressure at 1.25 mg/kg, po. In kind it is functional, Artery.
For experiment [9], the system named is Canis familiaris. The experiment in a line: Peripheral vasodilating activity in mongrel dog assessed as increase in iliac blood flow at 1600 ug, ia in presence of isoproterenol and 1000 ug/kg timolol. In kind it is functional, Canis lupus familiaris, Artery.

Where only a bound is given, the exact number is not on record here.

Usually ED50 stands for the dose at which the effect has come halfway, by size or by number of responders. With `COC(=O)c1cnc(-c2ccc(OCC(O)CNC(C)(C)C)cc2)[nH]1` (racemic), the Activity in the experiment with Canis familiaris [1] is 29 mL/min; with Rattus norvegicus [4], 17 mmHg; in the experiment on Rattus norvegicus [5], 36 mmHg; in the experiment filed under Canis familiaris [6], 80 mL/min. The median effective dose (ED50) with Canis familiaris [2] is more than 1 mg/kg; in the experiment on Canis familiaris [3] it was 0.04 mg/kg.

In the case of `Cc1cnc(-c2ccc(OC[C@@H](O)CNC(C)(C)C)cc2)[nH]1.O=C(O)/C=C\C(=O)O`, the Activity came out at 32 mL/min with Canis familiaris [1]; 24 mmHg in the experiment with Rattus norvegicus [8]; 19 mmHg in the experiment on Rattus norvegicus [4]; 41 mmHg in the experiment with Rattus norvegicus [5]; 59 mL/min in the experiment filed under Canis familiaris [6]. The ED50 with Canis familiaris [2] stood at 1 mg/kg; in the experiment on Canis familiaris [3] it was 0.03 mg/kg; with Canis familiaris [7], 0.277 mg/kg.

In the case of `CC(C)(C)NCC(O)COc1ccc(-c2ncc(-c3ccc(Cl)cc3)[nH]2)cc1` (racemic), the figures for the ED50 with Canis familiaris [2], with Canis familiaris [3] and with Canis familiaris [7] were 0.137 mg/kg, 0.0562 mg/kg and 0.0827 mg/kg, respectively. Further, the figures for the Activity with Rattus norvegicus [8], in the experiment on Rattus norvegicus [4] and in the experiment with Rattus norvegicus [5] were 32 mmHg, 35 mmHg and 32 mmHg, respectively.

With `CC(C)(C)NCC(O)COc1ccc(-c2ncc(C(F)(F)F)[nH]2)c2ccccc12` (racemic), the ED50 is more than 1 mg/kg in the experiment on Canis familiaris [2] and 0.186 mg/kg in the experiment on Canis familiaris [3]. For the same compound, the Activity stood at 21 mmHg in the experiment on Rattus norvegicus [4], 40 mmHg in the experiment on Rattus norvegicus [5], 35 mL/min in the experiment listed under Canis familiaris [6] and 40 mL/min with Canis familiaris [9].

Consider `Cc1c(OCC(O)CNC(C)(C)C)ccc(-c2ncc(C(F)(F)F)[nH]2)c1C` (racemic), for which the results for the 50% effective dose (ED50) in the experiment with Canis familiaris [2], in the experiment with Canis familiaris [3] and with Canis familiaris [7] were 0.582 mg/kg, 0.071 mg/kg and 0.055 mg/kg, respectively. Besides, the Activity stood at 27 mmHg in the experiment on Rattus norvegicus [8]; 24 mmHg in the experiment with Rattus norvegicus [4]; 30 mmHg in the experiment on Rattus norvegicus [5]; 23 mL/min in the experiment listed under Canis familiaris [6]; 19 mL/min in the experiment with Canis familiaris [9].

As for `COc1ccc(-c2cnc(-c3ccc(OC[C@@H](O)CNC(C)(C)C)cc3)[nH]2)cc1.O=C(O)/C=C\C(=O)O`, the Activity amounted to 16 mL/min with Canis familiaris [1]; 10 mmHg in the experiment on Rattus norvegicus [8]; 28 mmHg in the experiment with Rattus norvegicus [4]; 39 mmHg with Rattus norvegicus [5]; 26 mL/min in the experiment filed under Canis familiaris [6]. Also, the ED50 with Canis familiaris [2] is 0.525 mg/kg; with Canis familiaris [3], 0.027 mg/kg; in the experiment on Canis familiaris [7], 0.48 mg/kg.

`CC(C)(C)NCC(O)COc1ccc(-c2ncc(-c3ccccc3)[nH]2)cc1` (racemic): the Activity in the experiment with Canis familiaris [1] is 42 mL/min; in the experiment on Rattus norvegicus [8], 20 mmHg; with Rattus norvegicus [4], 30 mmHg; in the experiment with Rattus norvegicus [5], 54 mmHg; in the experiment filed under Canis familiaris [6], 46 mL/min. Further, the ED50 in the experiment on Canis familiaris [2] worked out at 0.083 mg/kg; in the experiment with Canis familiaris [3] it was 0.035 mg/kg; in the experiment with Canis familiaris [7] it was 0.095 mg/kg.

For `CC(C)(C)NCC(O)COc1ccc(-c2ncc(-c3cccnc3)[nH]2)cc1` (racemic), the Activity in the experiment on Canis familiaris [1] was determined as 40 mL/min; in the experiment on Rattus norvegicus [4] it was 28 mmHg; in the experiment on Rattus norvegicus [5], 13 mmHg; in the experiment listed under Canis familiaris [6] it was 64 mL/min. Further, the median effective dose (ED50) is more than 1 mg/kg with Canis familiaris [2] and 0.054 mg/kg in the experiment on Canis familiaris [3].

Regarding `Cc1cc(OCC(O)CNC(C)(C)C)cc(C)c1-c1ncc(C(F)(F)F)[nH]1` (racemic), the figures for the ED50 in the experiment on Canis familiaris [2], in the experiment on Canis familiaris [3] and in the experiment with Canis familiaris [7] were more than 1 mg/kg, 0.091 mg/kg and 0.163 mg/kg, respectively. In addition, the Activity in the experiment on Rattus norvegicus [8] was determined as 31 mmHg; with Rattus norvegicus [4] it was 20 mmHg; with Rattus norvegicus [5], 30 mmHg; in the experiment filed under Canis familiaris [6] it was 5 mL/min; in the experiment on Canis familiaris [9] it was 10 mL/min.

As for `CC(C)(C)NCC(O)COc1ccc(-c2ncc(-c3ccco3)[nH]2)cc1` (racemic), the Activity in the experiment on Canis familiaris [1] stood at 40 mL/min; with Rattus norvegicus [5], 35 mmHg; in the experiment filed under Canis familiaris [6], 80 mL/min. The results for the ED50 in the experiment with Canis familiaris [2] and in the experiment with Canis familiaris [3] were 0.3 mg/kg and 0.015 mg/kg, respectively.

`CC(C)(C)NCC(O)COc1ccc(-c2ncc(-c3ccccn3)[nH]2)cc1` (racemic): the Activity with Rattus norvegicus [8] amounted to 6 mmHg; with Rattus norvegicus [4], 27 mmHg; with Rattus norvegicus [5], 40 mmHg.

Turning to `Cc1cc(OC[C@@H](O)CNC(C)(C)C)ccc1-c1ncc(C(F)(F)F)[nH]1`, the ED50 came out at 0.0927 mg/kg with Canis familiaris [2], 0.0157 mg/kg in the experiment with Canis familiaris [3] and 0.0364 mg/kg with Canis familiaris [7]. For the same compound, the Activity with Rattus norvegicus [8] came out at 36 mmHg; in the experiment with Rattus norvegicus [4] it was 51 mmHg; in the experiment filed under Canis familiaris [6], 36 mL/min; with Canis familiaris [9], 39 mL/min.

Take `CC(=O)Nc1ccc(OCC(O)CNC(C)C)cc1` (stereo not drawn) [PRACTOLOL]: the values for the median effective dose (ED50) with Canis familiaris [2], in the experiment on Canis familiaris [3] and with Canis familiaris [7] were 1 mg/kg, 0.115 mg/kg and 1.08 mg/kg, respectively.

For `CC(C)(C)NC[C@H](O)COc1ccc(-c2ncc[nH]2)cc1`, the Activity with Canis familiaris [1] is 0 mL/min; in the experiment on Rattus norvegicus [8], 19 mmHg; in the experiment on Rattus norvegicus [5], 41 mmHg; in the experiment listed under Canis familiaris [6], 30 mL/min. For the same compound, the median effective dose (ED50) is more than 1 mg/kg in the experiment with Canis familiaris [2] and 0.067 mg/kg in the experiment on Canis familiaris [3].

Turning to `NNc1nncc2ccccc12` [HYDRALAZINE], the Activity in the experiment filed under Canis familiaris [6] was 66 mL/min.

On to `CC(C)(C)NCC(O)COc1ccc(-c2ncc(C(N)=O)[nH]2)cc1` (racemic), for which the ED50 in the experiment with Canis familiaris [2] is more than 1 mg/kg; in the experiment on Canis familiaris [3], 0.262 mg/kg; in the experiment with Canis familiaris [7] it was more than 1 mg/kg. Moreover, the Activity with Rattus norvegicus [5] is 14 mmHg.

On to `CC(C)(C)NCC(O)COc1ccc(-c2ncc(C(F)(F)F)[nH]2)c(Cl)c1Cl` (racemic), for which the figures for the Activity in the experiment with Rattus norvegicus [4] and with Rattus norvegicus [5] were 16 mmHg and 49 mmHg, respectively.

On to `CC(C)(C)NCC(O)COc1ccc(-c2ncc(-c3c(F)c(F)c(F)c(F)c3F)[nH]2)cc1` (racemic), for which the Activity in the experiment with Canis familiaris [1] stood at 48 mL/min; in the experiment with Rattus norvegicus [8], 21 mmHg; with Rattus norvegicus [4], 19 mmHg; in the experiment on Rattus norvegicus [5] it was 40 mmHg; in the experiment listed under Canis familiaris [6] it was 56 mL/min. Further, the results for the ED50 in the experiment on Canis familiaris [2] and in the experiment on Canis familiaris [3] were 0.3 mg/kg and 0.082 mg/kg, respectively.

Turning to `CC(C)(C)NCC(O)COc1ccc(-c2ncc(-c3ccc(Cl)c(Cl)c3)[nH]2)cc1` (racemic), the Activity in the experiment on Canis familiaris [1] came out at 15 mL/min; in the experiment with Rattus norvegicus [8], 36 mmHg; in the experiment with Rattus norvegicus [4], 35 mmHg; in the experiment on Rattus norvegicus [5], 49 mmHg; in the experiment listed under Canis familiaris [6], 56 mL/min. The ED50 was found to be 0.117 mg/kg with Canis familiaris [2], 0.123 mg/kg with Canis familiaris [3] and 0.097 mg/kg in the experiment on Canis familiaris [7].

Take `CC(C)(C)NCC(O)COc1cc(Cl)c(-c2ncc(C(F)(F)F)[nH]2)c(Cl)c1` (racemic): the Activity is 16 mmHg in the experiment on Rattus norvegicus [8] and 30 mmHg in the experiment with Rattus norvegicus [4].

Take `CC(C)(C)NCC(O)COc1ccc(-c2ncc(C(F)(F)F)[nH]2)c2c1CCCC2` (racemic): the ED50 with Canis familiaris [2] was 0.167 mg/kg; in the experiment on Canis familiaris [3] it was 0.228 mg/kg; with Canis familiaris [7], 0.1 mg/kg. For the same compound, the Activity is 22 mmHg in the experiment with Rattus norvegicus [5], -15 mL/min in the experiment listed under Canis familiaris [6] and -10 mL/min in the experiment on Canis familiaris [9].

As to `CC(C)(C)NCC(O)COc1ccc(-c2ncc(-c3ccc(F)cc3)[nH]2)cc1` (racemic), the Activity was 32 mL/min in the experiment on Canis familiaris [1], 13 mmHg with Rattus norvegicus [5] and 42 mL/min in the experiment listed under Canis familiaris [6]. Moreover, the ED50 in the experiment on Canis familiaris [2] amounted to 0.139 mg/kg; with Canis familiaris [3] it was 0.019 mg/kg.
